Test results as given in PubChem BioAssay (NCI).
Where “and” joins values, the source holds several entries; their conditions need not be identical. Equal entries are not always repeated.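 These data come from cells grown in 96-well plates and exposed to compound for 48 hours at five concentrations. GI50 = concentration required for 50% inhibition of growth. TGI denotes the concentration required for complete inhibition of growth.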

Assays:
Assay in all cases: NCI-60 cell line screen, 48 h
A498 renal = system: A498 renal
CAKI-1 renal = system: CAKI-1 renal
IGROV1 ovarian = system: IGROV1 ovarian
LOX IMVI melanoma = system: LOX IMVI melanoma
SK-MEL-2 melanoma = system: SK-MEL-2 melanoma
SK-MEL-28 melanoma = system: SK-MEL-28 melanoma
SNB-75 CNS = system: SNB-75 CNS
U251 CNS = system: U251 CNS
UO-31 renal = system: UO-31 renal
NCI-H460 lung = system: NCI-H460 lung

Row | Structure (SMILES) | TGI (A498 renal) | TGI (CAKI-1 renal) | TGI (IGROV1 ovarian) | TGI (LOX IMVI melanoma) | TGI (SK-MEL-2 melanoma) | TGI (SK-MEL-28 melanoma) | TGI (SNB-75 CNS) | TGI (U251 CNS) | TGI (UO-31 renal) | TGI (NCI-H460 lung) | GI50 (IGROV1 ovarian) | GI50 (LOX IMVI melanoma) | GI50 (SK-MEL-28 melanoma) | GI50 (SNB-75 CNS) | GI50 (U251 CNS) | GI50 (UO-31 renal)
1 | C#CCOC(=O)C(N)CCSC (stereo unspecified) | > 100 µM | > 100 µM | > 100 µM | > 100 µM | > 100 µM | > 100 µM | > 100 µM | > 100 µM | > 100 µM |  |  |  |  |  |  | 
2 | COc1ccccc1NS(=O)(=O)c1ccc2ncn(NS(=O)(=O)c3ccc(Cl)cc3)c(=O)c2c1 |  | > 100 µM | > 100 µM | > 100 µM | > 100 µM | > 100 µM | > 100 µM | > 100 µM | > 100 µM | > 100 µM |  |  |  |  |  | 
3 | C#CCCCC(=O)N(C(=O)CS(=O)CC)c1ccccc1 (stereo unspecified) |  | > 100 µM | > 100 µM | > 100 µM | > 100 µM | > 100 µM | > 100 µM | > 100 µM | > 100 µM | > 100 µM |  |  |  |  |  | 
4 | Cc1cc(C)c(N=Nc2c(O)c(S(=O)(=O)O)cc3cc(S(=O)(=O)O)ccc23)cc1C | > 100 µM | > 100 µM | > 100 µM | > 100 µM | > 100 µM | > 100 µM | > 100 µM | > 100 µM | > 100 µM |  |  |  |  |  |  | 
5 | CC(=O)C1(O)Cc2c(O)c3c(c(O)c2C(OC2CC(N)C(O)C(C)O2)C1)C(=O)c1ccccc1C3=O (stereo unspecified) | 0.0453 µM |  | 0.525 µM and 0.503 µM | 0.243 µM and 0.0335 µM |  | 0.49 µM and 0.367 µM | 0.594 µM and 0.103 µM | 0.419 µM and 0.13 µM | 0.204 µM and < 0.0304 µM | 0.0836 µM and 0.0123 µM | 0.0383 µM | 0.0214 µM | 0.151 µM and 0.049 µM | 0.0293 µM | < 0.0115 µM | < 0.0127 µM
6 | C=CCN1CCC2(CC1)NC(=O)c1ccccc1O2 |  | > 100 µM | > 100 µM | > 100 µM | > 100 µM | > 100 µM | > 100 µM | > 100 µM | > 100 µM | > 100 µM |  |  |  |  |  | 
7 | CC1=CC(=O)/C(=C/n2c(=S)[nH]c3ccccc32)C(=O)O1 | > 100 µM | > 100 µM | > 100 µM | > 100 µM | > 100 µM |  | > 100 µM | > 100 µM | > 100 µM | > 100 µM |  |  |  |  |  | 
8 | O=C(NN=C1CCCCC1)NN=C1CCCCC1 |  | > 100 µM | > 100 µM | > 100 µM |  | > 100 µM | > 100 µM | > 100 µM | > 100 µM | > 100 µM |  |  |  |  |  | 
9 | Cc1sc2nc3n(c(=O)c2c1C)N=C(c1ccc([N+](=O)[O-])cc1)CS3 | > 100 µM | > 100 µM |  | > 100 µM |  | > 100 µM | > 100 µM | > 100 µM | > 100 µM | > 100 µM |  |  |  |  |  | 
10 | COc1cc2c(c(OC)c1OC)-c1ccc(SC)cc1C(=O)CC2 |  | > 100 µM | > 100 µM | > 100 µM | > 100 µM | > 100 µM | > 100 µM | > 100 µM |  | > 32.1 µM |  |  |  |  |  | 
11 | O=[N+]([O-])c1cc(Cl)ccc1S(=O)(=O)N1CCCc2cc(Cl)ccc21 | > 100 µM | > 100 µM | > 100 µM | > 100 µM | > 100 µM | > 100 µM | > 100 µM |  | > 100 µM | > 100 µM |  |  |  |  |  | 
12 | CN(C)c1ccc(/C=c2/c3cc([N+](=O)[O-])ccc3n3c2cc(-c2ccccc2)[n+]3C)cc1 | 7.94 µM | 23.4 µM | 2.29 µM |  | 1.68 µM | 3.09 µM | 3.79 µM | 1.32 µM | 23 µM | 11.7 µM |  |  |  |  |  | 
13 | OC1c2ccccc2C(O)C2OC12 (stereo unspecified) | > 100 µM | > 100 µM | > 100 µM | > 100 µM | > 100 µM | > 100 µM |  | > 100 µM | > 100 µM | > 100 µM |  |  |  |  |  | 
14 | CC1(C)c2ccccc2C(O)C12CCC(=O)CC2 (stereo unspecified) | > 100 µM |  | > 100 µM | > 100 µM | > 100 µM | > 100 µM |  | > 100 µM | > 100 µM | > 100 µM |  |  |  |  |  | 
15 | COc1ccc2c(c1)-c1[nH]c3ccccc3c1CC2 |  | 29.4 µM | 18.8 µM | 36.3 µM | 29.4 µM | 32.1 µM | 28.9 µM | 30.8 µM | 29.5 µM | 29.9 µM |  |  |  |  |  | 
16 | CN1B(c2ccccc2)N(C)C(=O)N(C)C1=O |  | > 100 µM | > 100 µM |  | > 100 µM |  | > 100 µM | > 100 µM | > 100 µM | > 100 µM |  |  |  |  |  | 
17 | C=CCC(SC)C1=C(C)C(=O)c2ccccc21 (stereo unspecified) | > 10 µM |  | > 10 µM | > 10 µM | > 10 µM | > 10 µM |  | > 10 µM | > 10 µM | > 10 µM |  |  |  |  |  | 
18 | O=C(O)CC(O)(C(=O)O)C(O)C(=O)O (stereo unspecified) |  | > 1000 µM | > 1000 µM | > 1000 µM | > 1000 µM | > 1000 µM | > 1000 µM | > 1000 µM |  | > 1000 µM |  |  |  |  |  | 
19 | Brc1cccc[n+]1-c1ccc2cc(-[n+]3ccccc3Br)ccc2c1 | > 100 µM | > 100 µM | 28 µM | 34.7 µM | > 100 µM | > 100 µM |  | 29.8 µM | 38.5 µM | > 100 µM |  |  |  |  |  | 
20 | CC1CC[C@@]2(OC1)OC1C[C@H]3[C@@H]4CCC5CC(O)CC[C@]5(C)[C@H]4C/C(=N\N(C)C)[C@]3(C)C1[C@@H]2C (stereo partly specified) | 48.6 µM |  | > 100 µM | > 100 µM | 45.6 µM | > 100 µM |  | > 100 µM | 90.4 µM | > 100 µM |  |  |  |  |  | 
21 | Cc1cccc(NC2=NCCO2)c1Cl | > 100 µM |  | > 100 µM |  |  | > 100 µM | > 100 µM | > 100 µM | > 100 µM | > 100 µM |  |  |  |  |  | 
22 | COC[C@@H](Cc1ccc(OC)c(OC)c1)[C@@H](COC)Cc1ccc(OC)c(OC)c1 | > 100 µM |  | > 100 µM | > 100 µM | > 100 µM | > 100 µM | > 100 µM | > 100 µM | > 100 µM | > 100 µM |  |  |  |  |  | 
23 | Cc1cc(O)c(C(C)C)cc1N=Cc1ccccc1O | 66.2 µM | 25.4 µM | 22.4 µM | > 84.3 µM | 25.4 µM | 31.4 µM |  | 14.6 µM | 33.7 µM | 24.6 µM |  |  |  |  |  | 
